Legend:
[1] = continuous administration; ref Small et al., 2015; Nurmohamed et al., 2022; cited from earlier work
[2] = parameters: method as in Small et al., 2015; conditions: ref Small et al., 2015; cited from earlier work
[3] = Rapid equilibrium dialysis, plasma on both sides of the membrane; format: in vitro ADME; conditions: after 24 h, preliminary data
Source text: One last factor we considered in this study was the mechanism by which evacetrapib is transported into brain tissue. To that effect, toxicokinetic parameters were derived from the blood and brain time courses, which indicate that the drug possibly requires some sort of transporter to reach peripheral compartments, such as the brain, and to clear from brain tissue. […] A possible explanation could be that evacetrapib enters the brain faster than it is cleared out of it, leading to a buildup in brain tissue. […] To determine which mechanisms are involved in evacetrapib distribution to the brain, a semi-PBPK model was developed (parameter values are in Table 1; Figure 5). To this end, we first aimed to determine the brain: plasma partition coefficient of evacetrapib using rapid equilibrium dialysis. […] This may be in line with our in vivo observations considering that only a small fraction of evacetrapib crossed the blood–brain barrier. However, the slow diffusion in our in vitro model is incongruent with the concentrations of evacetrapib found in the brain 2.2 h following intravenous injections. Thus, the implication of transporters cannot be excluded.

[4] = Semi-PBPK three-compartment model of distribution to the brain; parameters: species or system mice
Method: A semi-physiological-based pharmacokinetic (PBPK) model was developed to obtain more mechanistic information on the distribution of evacetrapib in the brain. First, a two-compartmental model (i.e., a plasma and a peripheral compartment) with a first-order elimination rate was fitted to describe the kinetics of the compound in plasma ([Mukherjee, 2022]) (Figure 1). Second, a third compartment was added and connected to the plasma compartment (Figure 1). The brain compartment was subdivided into vascular and tissue sub-compartments, with mass balance differential equations describing a distribution in the tissue that can be limited by diffusion as follows ([Shen, 2010]): dABrT/dt=PA∙CBrP−PA∙CBrT/PBr, (9) CBrT=ABrT/VBr1−VBrVF, (10) dABrP/dt=QBrCp−CBrP−PA∙CBrP−PA∙CBrT/PBr, (11) CBrP=ABrP/VBr∙VBrVF∙PF, (12) CBr=ABrT+ABrP/VBr, (13) where ABrT is the amount in the brain tissue, ABrP is the amount in the brain plasma, CBrP the concentration in the brain plasma, CBrT the concentration in the brain tissue subcompartment, CBr the concentration in the brain, Cp the plasma concentration, PA the permeability area product, PBr the brain-to-plasma partition coefficient, PF the plasma fraction of the blood, VBrVF the vascular volume fraction of the brain, VBr the volume of the brain, and QBr plasma flow to the brain.
Several scenarios were tested using this semi-PBPK model and brain concentration data to determine the mechanisms that best explain accumulation in the brain: 1) no permeability (i.e., PA = 0 L/h); 2) a perfusion-limited distribution (PA > 1,000,000 L/h) using the predicted PBr ([Poulin and Haddad, 2011]); 3) a perfusion-limited distribution with a low PBr (fitted); 4) a diffusion-limited distribution (fitted PA) using the predicted PBr; and 5) diffusion-limited distribution (fitted PA) and low PBr (fitted).
We used a semi-physiological three-compartment model to simulate the in vivo data (Figure 1). The parameters for the plasma and peripheral compartments were fitted to the plasma concentration at 40 mg/kg BW (Table 1; Figure 5B) ([Brown et al., 1997]; [Peyret et al., 2010]). Then, four scenarios were simulated assuming the following: a) perfusion-limited distribution with the predicted brain-to-plasma partition coefficient (PBr), b) as in a) with a low PBr, c) diffusion-limited distribution with the predicted PBr, and d) as in c) with low PBr, against the brain concentration data corrected for residual blood as explained in the Methods section. When assuming perfusion-limited distribution, the model could not simulate the observed data (Figure 5A), even when we adjusted for PBr. […] Thus, we propose that evacetrapib enters the brain in a diffusion-limited manner, which could include some form of facilitated transport.

[5] = two-compartment model, fitted to plasma concentration at 40 mg/kg BW

SMILES: Cc1cc(C)c2c(c1)[C@@H](N(Cc1cc(C(F)(F)F)cc(C(F)(F)F)c1)c1nnn(C)n1)CCCN2C[C@H]1CC[C@H](C(=O)O)CC1 [evacetrapib]
- Accumulation in adipose tissues [1]: does not accumulate in adipose tissues
- logP (octanol to water partition coefficient) [2]: 7.56
- Fraction diffused across the dialysis membrane [3]: 2%
- Permeability area product (PA) ([4]; fitted, diffusion-limited distribution): 1.1e-05 L/h
- Kp ([4]; male, hCETPtg (C57BL/6J background), mouse, intravenous, 40 mg/kg BW, fitted to brain concentrations corrected for residual blood, read-out: Brain:plasma partition coefficient (PBr)): 0.06
- k el ([4]; male, hCETPtg (C57BL/6J background), mouse, intravenous, two-compartment model, fitted to plasma concentration at 40 mg/kg BW, read-out: Elimination constant (Kel) (converted)): 0.000386 s⁻¹
- Apparent plasma volume (Vplasma) [4, 5]: 0.01 L
- Peripheral to plasma transfer constant (K21) [4, 5]: 1.21 h⁻¹
- Plasma to peripheral transfer constant (K12) [4, 5]: 2.4 h⁻¹

— PMC10390775, “CETP inhibitor evacetrapib enters mouse brain tissue” (Frontiers in Pharmacology, 2023)
